The target in assay [1] is T1, Vascular endothelial growth factor A, long form (Homo sapiens) (UniProt P15692).
T1 sequence (whole entry): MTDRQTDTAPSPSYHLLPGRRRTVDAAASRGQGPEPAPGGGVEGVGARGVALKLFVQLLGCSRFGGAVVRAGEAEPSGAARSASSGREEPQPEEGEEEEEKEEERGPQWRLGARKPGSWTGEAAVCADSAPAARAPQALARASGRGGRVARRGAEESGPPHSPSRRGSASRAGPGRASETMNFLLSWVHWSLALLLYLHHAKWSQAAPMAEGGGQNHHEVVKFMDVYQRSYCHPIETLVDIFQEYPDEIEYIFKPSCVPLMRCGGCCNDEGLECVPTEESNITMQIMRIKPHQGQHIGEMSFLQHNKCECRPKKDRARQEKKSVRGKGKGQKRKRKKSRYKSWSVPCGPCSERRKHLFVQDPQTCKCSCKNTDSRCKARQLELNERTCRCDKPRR
Kind of assay: Binding affinity to human VEGF (13 to 107 residues) expressed in Escherichia coli Rosetta (DE3) cells assessed as Gibbs free energy change at 37 degreeC by isothermal titration calorimetry analysis.

The target of assay [2] is T1, Vascular endothelial growth factor A, long form (Homo sapiens). Kind of assay: Binding affinity to human VEGF (13 to 107 residues) expressed in Escherichia coli Rosetta (DE3) cells assessed as change in enthalpy at 20 degreeC by isothermal titration calorimetry analysis. A general note: ITC needs no label: the signal is the heat of the interaction.
The target in assay [3] is T2, Vascular endothelial growth factor A, long form (Homo sapiens, UniProt P15692).
T2 sequence (P15692 whole entry): T1 sequence (whole entry)
Kind of assay: Binding affinity to human VEGF (13 to 107 residues) expressed in Escherichia coli Rosetta (DE3) cells assessed as dissociation constant at 20 degreeC by isothermal titration calorimetry analysis.

The test system of assay [4] is HUVEC. Kind of assay: Antiangiogenic activity in human HUVEC cells assessed as inhibition of VEGFA-induced cell migration incubated for 12 hrs by wound healing assay. It is filed as functional, cell-based.
Assay [5] has as its system HUVEC. Kind of assay: Antiangiogenic activity in human HUVEC cells assessed as inhibition of VEGFA-induced capillary tube formation incubated for 6 hrs by matrigel based microscopic analysis. The format is functional, cell-based.
Assay [6] addresses T2, Vascular endothelial growth factor A, long form. Kind of assay: Binding affinity to human VEGF (13 to 107 residues) expressed in Escherichia coli Rosetta (DE3) cells assessed as dissociation constant at 37 degreeC by isothermal titration calorimetry analysis.
Assay [7] concerns the target T1, Vascular endothelial growth factor A, long form (Homo sapiens). Kind of assay: Binding affinity to human VEGF (13 to 107 residues) expressed in Escherichia coli Rosetta (DE3) cells assessed as change in entropy at 20 degreeC by isothermal titration calorimetry analysis.
The target is the same in assay [8]. Kind of assay: Binding affinity to human VEGF (13 to 107 residues) expressed in Escherichia coli Rosetta (DE3) cells assessed as change in enthalpy at 37 degreeC by isothermal titration calorimetry analysis.
Assay [9] has the same target. Kind of assay: Binding affinity to human VEGF (13 to 107 residues) expressed in Escherichia coli Rosetta (DE3) cells assessed as Gibbs free energy change at 20 degreeC by isothermal titration calorimetry analysis.
Assay [10] has the same target. Kind of assay: Binding affinity to human VEGF (13 to 107 residues) expressed in Escherichia coli Rosetta (DE3) cells assessed as change in entropy at 37 degreeC by isothermal titration calorimetry analysis.
Assay [11] has the same target. Kind of assay: Binding affinity to human VEGF (13 to 107 residues) expressed in Escherichia coli Rosetta (DE3) cells assessed as change in heat capacity at 20 degreeC by isothermal titration calorimetry analysis.

Starred links: 1 amine or outer side, 2 acyl side, 3 side chain; linkers in the order of their positions; H or OH if unused. Positions of bridges follow the written chain, without caps; N, C: chain ends. Residues, ends and D or L forms follow the SMILES beside them. Chains are numbered I, II in the order given. *: point of attachment. CO(CH2)2(OCH2CH2)17CO = O=C(CCOCCOCCOCCOCCOCCOCCOCCOCCOCCOCCOCCOCCOCCOCCOCCOCCOCCC(=O)[*:2])[*:1]; X2 = O=C(O)CCOCCOCCOCCOCCOCCOCCOCCOCCOCCOCCOCCOCCOCCOCCOCCOCCOCCOCCOCCOCCOCCOCCOCCOCCOCCC(=O)*; X3 = O=C(CCOCCOCCOCCOCCOCCOCCOCCOCCOCCOCCOCCOCCOCCOCCOCCOCCOCCOCCOCCOCCOCCC(=O)[*:2])[*:1]; CO(CH2CH2O)5CH2CH2CO = O=C(CCOCCOCCOCCOCCOCCC(=O)[*:2])[*:1]

As usually defined, the Kd is a measure of binding affinity in units of concentration. As for `CC[C@H](C)[C@@H]1NC(=O)[C@H](CC(=O)O)NC(=O)[C@@H](NC(C)=O)CSSC[C@@H]2NC(=O)[C@H](CCCCNC(=O)C[C@@H](C(=O)N[C@@H](CC(C)C)C(N)=O)NC(=O)[C@H](CCC(=O)O)NC(=O)[C@H](Cc3ccccc3)NC2=O)NC(=O)[C@H](Cc2c[nH]c3ccccc23)NC(=O)[C@H](CCC(=O)O)NC(=O)[C@H](Cc2c[nH]c3ccccc23)NC(=O)[C@H](CCCCNC(=O)CCOCCOCCOCCOCCOCCC(=O)NCCCC[C@@H]2NC(=O)[C@H](C(C)C)NC(=O)[C@H](Cc3cnc[nH]3)NC(=O)[C@H]([C@@H](C)CC)NC(=O)[C@H](CC(=O)O)NC(=O)[C@@H](NC(C)=O)CSSC[C@@H]3NC(=O)[C@H](CCCCNC(=O)C[C@@H](C(=O)N[C@@H](CC(C)C)C(N)=O)NC(=O)[C@H](CCC(=O)O)NC(=O)[C@H](Cc4ccccc4)NC3=O)NC(=O)[C@H](Cc3c[nH]c4ccccc34)NC(=O)[C@H](CCC(=O)O)NC(=O)[C@H](Cc3c[nH]c4ccccc34)NC2=O)NC(=O)[C@H](C(C)C)NC(=O)[C@H](Cc2cnc[nH]2)NC1=O` (I: Ac-CDIHVKWEWKCFEDL-NH2 / II: Ac-CDIHVKWEWKCFEDL-NH2; disulfide I:1-I:11, II:1-II:11; linker I:6-II:6 via CO(CH2CH2O)5CH2CH2CO; lactam I:10-I:14, II:10-II:14), the deltaG in assay [1] is -10 kcal/mol; in assay [9], -10.4 kcal/mol. Moreover, the deltaH was -37.7 kcal/mol in assay [2] and -46.4 kcal/mol in assay [8]. Further, the results for the Kd in assay [3] and in assay [6] were 18 nM and 89 nM, respectively. For the same molecule, the Activity entry in assay [4] and in [5] was “Dose-Dependent Effect” throughout. In addition, the -TdeltaS in assay [7] worked out at 27.3 kcal/mol; in assay [10] it was 36.4 kcal/mol. Further, the DeltaCp in [11] was -0.51 kcal/mol/K.
As for `CC[C@H](C)[C@@H]1NC(=O)[C@H](CC(=O)O)NC(=O)[C@@H](NC(C)=O)CSSC[C@@H]2NC(=O)[C@H](CCCCNC(=O)C[C@@H](C(=O)N[C@@H](CC(C)C)C(N)=O)NC(=O)[C@H](CCC(=O)O)NC(=O)[C@H](Cc3ccccc3)NC2=O)NC(=O)[C@H](Cc2c[nH]c3ccccc23)NC(=O)[C@H](CCC(=O)O)NC(=O)[C@H](Cc2c[nH]c3ccccc23)NC(=O)[C@H](CCCCNC(=O)CCOCCOCCOCCOCCOCCOCCOCCOCCOCCOCCOCCOCCOCCOCCOCCOCCOCCOCCOCCOCCOCCOCCOCCOCCOCCC(=O)O)NC(=O)[C@H](C(C)C)NC(=O)[C@H](Cc2cnc[nH]2)NC1=O` (Ac-CDIHVK(X2)WEWKCFEDL-NH2; disulfide 1-11; lactam 10-14), the deltaG is -8.5 kcal/mol in assay [1] and -9.12 kcal/mol in assay [9]. Also, the deltaH in assay [2] was -18.6 kcal/mol; in assay [8] it was -24 kcal/mol. For the same molecule, the results for the Kd in assay [3] and in [6] were 158 nM and 1030 nM, respectively. The Activity entry in [4] and in [5] was “Dose-Dependent Effect” in each case. For the same molecule, the -TdeltaS in assay [7] is 9.51 kcal/mol; in assay [10], 15.5 kcal/mol. Also, the DeltaCp in assay [11] was -0.31 kcal/mol/K.
For the molecule `CC[C@H](C)[C@@H]1NC(=O)[C@H](CC(=O)O)NC(=O)[C@@H](NC(C)=O)CSSC[C@@H]2NC(=O)[C@H](CCCCNC(=O)C[C@@H](C(=O)N[C@@H](CC(C)C)C(N)=O)NC(=O)[C@H](CCC(=O)O)NC(=O)[C@H](Cc3ccccc3)NC2=O)NC(=O)[C@H](Cc2c[nH]c3ccccc23)NC(=O)[C@H](CCC(=O)O)NC(=O)[C@H](Cc2c[nH]c3ccccc23)NC(=O)[C@H](CCCCNC(=O)CCOCCOCCOCCOCCOCCOCCOCCOCCOCCOCCOCCOCCOCCOCCOCCOCCOCCC(=O)NCCCC[C@@H]2NC(=O)[C@H](C(C)C)NC(=O)[C@H](Cc3cnc[nH]3)NC(=O)[C@H]([C@@H](C)CC)NC(=O)[C@H](CC(=O)O)NC(=O)[C@@H](NC(C)=O)CSSC[C@@H]3NC(=O)[C@H](CCCCNC(=O)C[C@@H](C(=O)N[C@@H](CC(C)C)C(N)=O)NC(=O)[C@H](CCC(=O)O)NC(=O)[C@H](Cc4ccccc4)NC3=O)NC(=O)[C@H](Cc3c[nH]c4ccccc34)NC(=O)[C@H](CCC(=O)O)NC(=O)[C@H](Cc3c[nH]c4ccccc34)NC2=O)NC(=O)[C@H](C(C)C)NC(=O)[C@H](Cc2cnc[nH]2)NC1=O` (I: Ac-CDIHVKWEWKCFEDL-NH2 / II: Ac-CDIHVKWEWKCFEDL-NH2; disulfide I:1-I:11, II:1-II:11; linker I:6-II:6 via CO(CH2)2(OCH2CH2)17CO; lactam I:10-I:14, II:10-II:14), the deltaG is -10.4 kcal/mol in assay [1] and -10.3 kcal/mol in assay [9]. In addition, the deltaH is -38.1 kcal/mol in assay [2] and -48.3 kcal/mol in assay [8]. Further, the figures for the Kd in assay [3] and in assay [6] were 22 nM and 51 nM, respectively. In addition, the -TdeltaS was found to be 27.9 kcal/mol in assay [7] and 37.9 kcal/mol in assay [10]. Also, the DeltaCp in [11] was -0.6 kcal/mol/K.
With `CC[C@H](C)[C@@H]1NC(=O)[C@H](CC(=O)O)NC(=O)[C@@H](NC(C)=O)CSSC[C@@H]2NC(=O)[C@H](CCCCNC(=O)C[C@@H](C(=O)N[C@@H](CC(C)C)C(N)=O)NC(=O)[C@H](CCC(=O)O)NC(=O)[C@H](Cc3ccccc3)NC2=O)NC(=O)[C@H](Cc2c[nH]c3ccccc23)NC(=O)[C@H](CCC(=O)O)NC(=O)[C@H](Cc2c[nH]c3ccccc23)NC(=O)[C@H](CCCCNC(=O)CCOCCOCCOCCOCCOCCOCCOCCOCCOCCOCCOCCOCCOCCOCCOCCOCCOCCOCCOCCOCCOCCC(=O)NCCCC[C@@H]2NC(=O)[C@H](C(C)C)NC(=O)[C@H](Cc3cnc[nH]3)NC(=O)[C@H]([C@@H](C)CC)NC(=O)[C@H](CC(=O)O)NC(=O)[C@@H](NC(C)=O)CSSC[C@@H]3NC(=O)[C@H](CCCCNC(=O)C[C@@H](C(=O)N[C@@H](CC(C)C)C(N)=O)NC(=O)[C@H](CCC(=O)O)NC(=O)[C@H](Cc4ccccc4)NC3=O)NC(=O)[C@H](Cc3c[nH]c4ccccc34)NC(=O)[C@H](CCC(=O)O)NC(=O)[C@H](Cc3c[nH]c4ccccc34)NC2=O)NC(=O)[C@H](C(C)C)NC(=O)[C@H](Cc2cnc[nH]2)NC1=O` (I: Ac-CDIHVKWEWKCFEDL-NH2 / II: Ac-CDIHVKWEWKCFEDL-NH2; disulfide I:1-I:11, II:1-II:11; linker I:6-II:6 via X3; lactam I:10-I:14, II:10-II:14), the deltaG in assay [1] and in assay [9] was -10.5 kcal/mol throughout. In addition, the deltaH is -36.6 kcal/mol in assay [2] and -51.3 kcal/mol in [8]. Moreover, the Kd in assay [3] was 15 nM; in assay [6], 37 nM. The -TdeltaS is 26.1 kcal/mol in [7] and 40.7 kcal/mol in [10]. Also, in assay [11], the DeltaCp is -0.86 kcal/mol/K.
For the molecule `CC[C@H](C)[C@@H]1NC(=O)[C@H](CC(=O)O)NC(=O)[C@@H](NC(C)=O)CSSC[C@@H]2NC(=O)[C@H](CCCCNC(=O)C[C@@H](C(=O)N[C@@H](CC(C)C)C(N)=O)NC(=O)[C@H](CCC(=O)O)NC(=O)[C@H](Cc3ccccc3)NC2=O)NC(=O)[C@H](Cc2c[nH]c3ccccc23)NC(=O)[C@H](CCC(=O)O)NC(=O)[C@H](Cc2c[nH]c3ccccc23)NC(=O)[C@H](CCCCNC(C)=O)NC(=O)[C@H](C(C)C)NC(=O)[C@H](Cc2cnc[nH]2)NC1=O` (Ac-CDIHVK(Ac)WEWKCFEDL-NH2; disulfide 1-11; lactam 10-14), the deltaG was -9.32 kcal/mol in assay [1] and -9.79 kcal/mol in assay [9]. For the same molecule, the deltaH in assay [2] is -19.5 kcal/mol; in assay [8], -25.5 kcal/mol. For the same molecule, the Kd in [3] came out at 50 nM; in assay [6] it was 272 nM. Moreover, the Activity result in [4] and in [5] was “Dose-Dependent Effect” in each case. For the same molecule, the -TdeltaS in [7] worked out at 9.66 kcal/mol; in [10] it was 16.2 kcal/mol. For the same molecule, the DeltaCp in assay [11] is -0.36 kcal/mol/K.

For the origin of these results see ChEMBL document CHEMBL5346952, “Dimer Peptide Ligands of Vascular Endothelial Growth Factor: Optimizing Linker Length for High Affinity and Antiangiogenic Activity” (J Med Chem, 2023).
